Structures can show the parent of a compound that is named as a salt.
System: male Sprague Dawley rats
Experiment: Rat mustard oil model of visceral pain
Assay type: in vivo
Details: data combined from two studies
Method: All behavioural responses consistent with the presence of pain were determined following intra rectal injection of mustard oil in male Sprague Dawley rats. Typical behavioural responses consistent with the presence of pain following intra-colonic mustard oil injection include: arching, abdominal lifting, abdominal tensing, stretching, extending the rear leg (when lying down), raising and lowering the testicles, tip-toeing and writhing.
Male Sprague Dawley rats (130 g-160 g) were briefly sedated with 50% oxygen/50% carbon dioxide and 0.2 ml of 3% mustard oil injected into the colorectum, 1.5 cm from the anus. The anus was plugged with vaseline and animals placed in observational cages to which they had previously been acclimatised for 45 minutes prior to mustard oil injection. The number of visceral pain related behaviours, which consisted primarily of abdominal arching, were counted over a 25 minute period and the animals culled by cervical dislocation.
In separate studies, the effects of alosetron (0.1, 0.3 and 1.0 mg/kg n=10 per group), gabapentin (10, 30 and 100 mg/kg n=10 per group) and amitriptyline (3, 10 and 30 mg/kg n=9-10 per group) or vehicle (saline for alosetron and amitriptyline 10% 1-methyl-2-pyrolidone in saline for gabapentin n=10 per study) given sub cutaneously 15 minutes prior to injection of 3% mustard oil were examined on pain behaviour. Results are expressed as mean reduction in percentage of behaviours compared to vehicle treated animals and were statistically compared to vehicle treated animals using a one way ANOVA with Dunnett's comparison, p<0.05 considered significant.
The effect of the compound of Example 1 (0.1, 0.3, 1.0, 3.0, 10 and 30 mg/kg, n 9-20 per dosage) or vehicle (1% methyl cellulose, n=20) given orally 60 minutes prior to injection of mustard oil (3% mustard oil, 70% ethanol in saline) were examined on pain behaviour. The total number of visceral pain related behaviours, which consisted primarily of abdominal arching, were counted over a 25 minute period and the animals culled by cervical dislocation. Behaviours were normalised as the percentage of the vehicle group mean and expressed as mean percentage reductions. Data was combined from two studies and normalised as the percentage of the vehicle group mean for each individual study and expressed as a mean percentage reduction for both studies. Percentage reduction of behaviours compared to vehicle treated animals were analysed statistically using a one way ANOVA with Dunnett's comparison, p<0.05 considered significant.

For CC(C)(NCc1cc(-c2ccc(C(F)(F)F)cc2)ccn1)C(N)=O [Example E1, 2-Methyl-N^2-({4-[4-trifluoromethyl)phenyl]-2-pyridinyl}methyl)alaninamide hydrochloride], the “reduction in behaviours compared to vehicle treated animals” value (“reduction in behaviours” for short) (0.1 mg/kg orally 60 minutes prior to mustard oil) was 16%, the “reduction in behaviours” value (0.3 mg/kg orally 60 minutes prior to mustard oil) was 24% and the “reduction in behaviours” value (1.0 mg/kg orally 60 minutes prior to mustard oil) was 41%. The “reduction in behaviours” value (3.0 mg/kg orally 60 minutes prior to mustard oil) was 64%, the “reduction in behaviours” value (10 mg/kg orally 60 minutes prior to mustard oil) was 76% and the “reduction in behaviours” value (30 mg/kg orally 60 minutes prior to mustard oil) was 85%.

Reference: patent publication US20080058391A1, “NOVEL COMPOUNDS” (GLAXO GROUP LIMITED, priority 2006, published 2008)
